{"source": "paper PMC7156724", "about": "“Potent BRD4 inhibitor suppresses cancer cell-macrophage interaction” (Nature Communications, 2020)", "key": {"[1]": {"test": "Metabolic stability assay, monkey liver microsomes", "settings": "for Remaining in Monkey liver microsomes (Sup Fig.6d): in % (unit assumed)", "method": "7. Metabolic stability assay. The metabolic profile of NHWD-870 was determined using mouse, rat, dog, monkey, and human liver microsomes using the protocols […]\nNo. Compound ID Exat Mass Stock Conc.\n1) 100 mM potassium phosphate buffer, PH7.4; 2) 10mM MgCI2\n1) Intermediate solution: Dilute 5 μL of compound or control from stock solution (10 mM) with 45 uL DMSO,then mixed with 450 μL 1:1 Methanol/Water (Conc.: 10 0 […]\n2) Working solution: Dilute 50 μL from intermediate solution with 450 μL 100 mM potassium phosphate buffer (Conc.: 10 μM, 4.5%MeOH)\n(3) NADPH regenerating system (final Isocitric dehydrogenase conc.= 1 unit/mL at […]\n1) β-Nicotinamide adenine dinucleotide phosphate, Vendor: sigma Cat. No. N0505\n2) Isocitric acid, Vendor: Sigma Cat. No. I1252\n3) Isocitric dehydrogenase, Vendor: sigma Cat. No. I2002\n(4) Liver microsome solution preparation (final concentration o f 0.5 mg protein/mL) […]\nCold ACN including 100 ng/mL Tolbutamide and 100 ng/mL Labetalol as internal […]\n1) Add 10 μL compound or control working solution/well to all plates (T0, T5, T10, T20, T30, T60, NCF60) except matrix blank.\n2) Dispense 680 μL/well microsome solution to 96-well plate as reserv oir according to […]\nplate map. Then add 80 μL/well to every plate by Apricot, incubate the mixture of microsome solution and compound at 37℃ for about 10 min.\n3) Add 10 μL 100 mM potassium phosphate buffer/well to NCF60, incubate at 37℃, […]\n4) After pre-warming, dispense 90 μL/well NADPH regenerating system to 96-well plate as reservoir according to the plate map. Then add 10 μL/well to every plate by Apricot to start reaction.\n5) Incubate at 37℃, start timer 2.\n6) Add 300 (μL/well) stop solution (cold in 4℃, including 100 ng/mL Tolbutamide and 100 ng/mL Labetalol) to terminate the reaction.\n7) The sampling plates are shaked for approx 10 min.\n8) Samples are centrifuged at 4000 rpm for 20 min under 4℃.\n9) While centrifuging, load 8×new 96-well plate with 300 μL HPLC water, then transfer 100 μL supernatant, mixed for LC/MS/MS.\nUse equation of first order kinetics to calculate t1/2 and Clin t(mic): […]\nEquation of first order kinetics: […]"}, "ES-2 cells": {"test_system": "ES-2 cells", "test": "MTT cell growth assay, ES-2", "type": "cell-based, human", "settings": "5 days", "method": "Fig. 2 NHWD-870 inhibited BRD4 phosphorylation and c-MYC expression, and suppressed cell growth. a Representative western blot analysis of p-BRD4 (s484/488), BRD4, c-MYC, and GAPDH after treatment of MDA-MB231, SUM159, A2780 ES-2, and H526 cells with JQ-1 or NHWD-870 at the indicated concentrations for 24 h. GAPDH served as the loading control. Selected from three independent experiments. b MTT assays of H526, A2780, ES-2, and MDA-MB231 cells treated with JQ-1 or NHWD-870 at the indicated concentrations for 5 days. Data are presented as mean ± SEM from three independent experiments. c, d Clonogenic assays of H526, A2780, ES-2 and MDA-MB231 cells treated with 250 nM JQ-1 or NHWD-870 for 5 days. Shown are representative images (c) and quantification of colonies (d). […] Shown are representative images (e) and quantification of relative colony sizes (f). Scale bar, 50 μm. Data are presented as mean ± SEM from five independent experiments. p values were calculated using two-tailed, unpaired t tests in this figure. **p < 0.01; ***p < 0.001. Source data are provided as a Source Data file.\n37℃, 5% CO2. […]"}, "[2]": {"settings": "monkey, liver microsomes, pH 7.4"}}, "note": "Values joined by “and” are separate entries in the source; they are usually repeats but may differ in a detail not shown here. Equal values may be shown once.", "data": [{"smiles": "Cc1nnn(C)c1-c1cnc2c3c4cnn(C)c4ccc3n([C@H](c3ccccc3)C3CCOCC3)c2c1", "note": "[NHWD-870]", "values": [{"measurement": "Remaining (T=60min)", "setting": "[1]; monkey liver microsomes", "result": 25.7, "unit": "%"}, {"measurement": "Remaining (*NCF=60min)", "setting": "[1]; monkey liver microsomes, no cofactor", "result": 112.0, "unit": "%"}, {"measurement": "CLint scaled at 1 µM", "setting": "[1]; [2]", "result": 62.4, "unit": "mL/min/kg"}, {"measurement": "half-life at 1 µM", "setting": "[1]; [2]", "result": 30, "unit": "min"}, {"measurement": "microsomal CLint at 1 µM", "setting": "[1]; monkey, microsomes, pH 7.4", "result": 46.2, "unit": "µL/min/mg"}, {"measurement": "Remaining in Monkey liver microsomes (Sup Fig.6d)", "setting": "[1]; time 0", "result": 100}, {"measurement": "Remaining in Monkey liver microsomes (Sup Fig.6d)", "setting": "[1]; time 5", "result": 73.787}, {"measurement": "Remaining in Monkey liver microsomes (Sup Fig.6d)", "setting": "[1]; time 10", "result": 48.901}, {"measurement": "Remaining in Monkey liver microsomes (Sup Fig.6d)", "setting": "[1]; time 20", "result": 36.72}, {"measurement": "Remaining in Monkey liver microsomes (Sup Fig.6d)", "setting": "[1]; time 30", "result": 26.708}, {"measurement": "Remaining in Monkey liver microsomes (Sup Fig.6d)", "setting": "[1]; time 60", "result": 12.364}, {"measurement": "MTT assay, relative cell number", "setting": "ES-2 cells; ES-2, 0.1 nM", "result": "0.993 and 0.983 and 0.961"}, {"measurement": "MTT assay, relative cell number", "setting": "ES-2 cells; ES-2, 1 nM", "result": "0.911 and 0.921 and 0.934"}, {"measurement": "MTT assay, relative cell number", "setting": "ES-2 cells; ES-2, 10 nM", "result": "0.355 and 0.301 and 0.382"}, {"measurement": "MTT assay, relative cell number", "setting": "ES-2 cells; ES-2, 500 nM", "result": 0}, {"measurement": "MTT assay, relative cell number", "setting": "ES-2 cells; ES-2, 1000 nM", "result": 0}, {"measurement": "MTT assay, relative cell number", "setting": "ES-2 cells; ES-2, 5000 nM", "result": 0}, {"measurement": "MTT assay, relative cell number", "setting": "ES-2 cells; ES-2, 10000 nM", "result": 0}]}]}
